# Assay results as given in ChEMBL document CHEMBL1811859, “Second-generation sulfonamide inhibitors of D-glutamic acid-adding enzyme: activity optimisation with conformationally rigid analogues of D-glutamic acid” (Eur J Med Chem, 2011).
# Columns and labels:
# [1] = test system: Staphylococcus epidermidis; assay: Antimicrobial activity against Staphylococcus epidermidis ATCC 12228 by broth dilution method; assay type: functional
# Staphylococcus aureus [2] = assay: Antimicrobial activity against methicillin-resistant Staphylococcus aureus PL1 by broth dilution method; assay type: functional
# [3] = Inhibition of Escherichia coli MurD ligase assessed as addition of D-[3H]glu to UDP-N-acetyl-muramoyl-L-alanine after 30 mins
# Listeria monocytogenes = assay: Antimicrobial activity against Listeria monocytogenes ATCC 14780 by broth dilution method; assay type: functional
# Enterococcus faecalis [4] = assay: Antimicrobial activity against Enterococcus faecalis ATCC 19433 by broth dilution method; assay type: functional
# Streptococcus pneumoniae [5] = assay: Antimicrobial activity against Streptococcus pneumoniae ATCC 33400 by broth dilution method; assay type: functional
# Staphylococcus aureus [6] = assay: Antimicrobial activity against Staphylococcus aureus ATCC 25923 by broth dilution method; assay type: functional
# Klebsiella pneumoniae = assay: Antimicrobial activity against Klebsiella pneumoniae ATCC 13883 by broth dilution method; assay type: functional
# Streptococcus pneumoniae [7] = assay: Antimicrobial activity against Streptococcus pneumoniae ATCC 49619 by broth dilution method; assay type: functional
# Escherichia coli [8] = assay: Antimicrobial activity against Escherichia coli ATCC 8739 by broth dilution method; assay type: functional
# Listeria innocua = assay: Antimicrobial activity against Listeria innocua ATCC 33090 by broth dilution method; assay type: functional
# Staphylococcus aureus [9] = assay: Antimicrobial activity against methicillin-resistant Staphylococcus aureus ATCC 43300 by broth dilution method; assay type: functional
# Streptococcus pneumoniae [10] = assay: Antimicrobial activity against Streptococcus pneumoniae D39 by broth dilution method; assay type: functional
# Escherichia coli [11] = assay: Inhibition of Escherichia coli MurD ligase assessed as residual activity at 500 uM after 30 mins
# Micrococcus luteus = assay: Antimicrobial activity against Micrococcus luteus ATCC 9314 by broth dilution method; assay type: functional
# Enterococcus faecalis [12] = assay: Antimicrobial activity against Enterococcus faecalis ATCC 29212 by broth dilution method; assay type: functional
# Proteus mirabilis = assay: Antimicrobial activity against Proteus mirabilis ATCC 29936 by broth dilution method; assay type: functional
# Citrobacter freundii = assay: Antimicrobial activity against Citrobacter freundii ATCC 8090 by broth dilution method; assay type: functional
# Bacillus subtilis = assay: Antimicrobial activity against Bacillus subtilis ATCC 6633 by broth dilution method; assay type: functional
# Pseudomonas aeruginosa = assay: Antimicrobial activity against Pseudomonas aeruginosa ATCC 27853 by broth dilution method; assay type: functional
# Enterococcus hirae = assay: Antimicrobial activity against Enterococcus hirae ATCC 9790 by broth dilution method; assay type: functional
# Enterococcus faecium = assay: Antimicrobial activity against Enterococcus faecium ATCC 19434 by broth dilution method; assay type: functional
# [13] = Inhibition of Escherichia coli MurD ligase after 10 mins using malachite green reagent by colorimetry
# [14] = Inhibition of Escherichia coli MurD ligase assessed as addition of D-[3H]glu to UDP-N-acetyl-muramoyl-L-alanine
# [15] = Inhibition of Escherichia coli MurD ligase by fluorimetric assay
# [16] = Inhibition of Escherichia coli MurD ligase
Structure (SMILES),MIC [1] [µg/mL],MIC (Staphylococcus aureus [2]) [µg/mL],MIC (Listeria monocytogenes) [µg/mL],MIC (Enterococcus faecalis [4]) [µg/mL],MIC (Streptococcus pneumoniae [5]) [µg/mL],MIC (Staphylococcus aureus [6]) [µg/mL],MIC (Klebsiella pneumoniae) [µg/mL],MIC (Streptococcus pneumoniae [7]) [µg/mL],MIC (Escherichia coli [8]) [µg/mL],MIC (Listeria innocua) [µg/mL],MIC (Staphylococcus aureus [9]) [µg/mL],MIC (Streptococcus pneumoniae [10]) [µg/mL],Activity (Escherichia coli [11]) [%],MIC (Micrococcus luteus) [µg/mL],MIC (Enterococcus faecalis [12]) [µg/mL],MIC (Proteus mirabilis) [µg/mL],MIC (Citrobacter freundii) [µg/mL],MIC (Bacillus subtilis) [µg/mL],MIC (Pseudomonas aeruginosa) [µg/mL],MIC (Enterococcus hirae) [µg/mL],also measured
N#Cc1ccc(COc2ccc3cc(S(=O)(=O)Nc4ccc(O)cc4C(=O)O)ccc3c2)c(F)c1,> 512,> 512,> 512,> 512,> 512,> 512,> 512,> 512,> 512,> 512,> 512,> 512,3,> 512,> 512,> 512,> 512,> 512,> 512,> 512,IC50 [3]: 46 µM; Ki [3]: 32 µM; MIC (Enterococcus faecium): > 512 µg/mL
C[C@@H]1NC(=O)[C@H](CO)NC(=O)CCCCCC[C@H](C(=O)O)CC1=O,,,,,,,,,,,,,,,,,,,,,IC50 [13]: 0.7 µM
CC(=O)N[C@H]1C(OP(=O)(O)O)O[C@H](CO)[C@@H](O)[C@@H]1O[C@H](C)C(=O)N[C@@H](C)P(=O)(O)CC(CCC(=O)O)C(=O)O (stereo not given in full),,,,,,,,,,,,,,,,,,,,,IC50 [14]: 0.02 µM
Cc1ccc(C(=O)O)cc1NC(=O)CSc1nnc(N)s1,,,,,,,,,,,,,,,,,,,,,IC50 [15]: 105 µM
O=C(N/N=C/c1ccc(O)c(O)c1O)c1n[nH]c2ccccc12,,,,,,,,,,,,,,,,,,,,,IC50 [16]: 324 µM
CCCCOc1ccc2cc(S(=O)(=O)Nc3ccc(CC(=O)O)cc3)ccc2c1,256,256,> 512,512,> 512,256,> 512,> 512,> 512,> 512,256,> 512,97,512,256,> 512,> 512,512,> 512,512,MIC (Enterococcus faecium): 512 µg/mL
CCCCOc1ccc2cc(S(=O)(=O)N[C@@H](CCC(=O)O)C(=O)O)ccc2c1,,,,,,,,,,,,,,,,,,,,,IC50 [16]: 710 µM
CCCCOc1ccc2cc(S(=O)(=O)Nc3cc(C(=O)O)ccc3C(=O)O)ccc2c1,> 512,> 512,> 512,> 512,> 512,> 512,> 512,> 512,> 512,> 512,> 512,> 512,78,> 512,> 512,> 512,> 512,> 512,> 512,> 512,MIC (Enterococcus faecium): > 512 µg/mL
